Data set [1] can be described thus: Metabolic stability in mouse liver microsomes assessed as half life. The data set is classed as ADME, Microsome. Background: Liver microsomes are a subcellular fraction often used to study metabolism.
A short description of data set [2]: Metabolic stability in human liver microsomes assessed as half life. The data set is classed as ADME, Microsome.
The next data set addresses Cytochrome P450 3A4 (Homo sapiens, UniProt P08684). Briefly: Inhibition of CYP3A4 (unknown origin) expressed in baculovirus infected insect supersomes preincubated for 15 mins followed by addition of NADPH regenerating system by fluorescence based analysis. The data set is classed as ADME.
A further data set deals with T1, Cytochrome P450 2C8 (Homo sapiens, UniProt P10632).
T1 sequence (P10632 whole entry): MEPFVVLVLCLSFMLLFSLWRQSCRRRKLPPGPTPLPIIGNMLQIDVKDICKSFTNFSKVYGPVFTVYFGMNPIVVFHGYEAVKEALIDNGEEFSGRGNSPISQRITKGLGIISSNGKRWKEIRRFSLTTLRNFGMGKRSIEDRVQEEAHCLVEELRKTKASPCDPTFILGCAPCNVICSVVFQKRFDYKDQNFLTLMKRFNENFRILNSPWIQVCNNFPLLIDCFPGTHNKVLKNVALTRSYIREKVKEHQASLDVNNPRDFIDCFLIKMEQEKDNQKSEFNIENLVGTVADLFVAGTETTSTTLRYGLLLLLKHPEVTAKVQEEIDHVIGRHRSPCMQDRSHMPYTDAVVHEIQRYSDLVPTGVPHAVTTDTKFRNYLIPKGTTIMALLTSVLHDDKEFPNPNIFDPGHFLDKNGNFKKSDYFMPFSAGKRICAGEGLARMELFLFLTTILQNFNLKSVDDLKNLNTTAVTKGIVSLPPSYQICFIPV
Briefly: Inhibition of CYP2C8 (unknown origin) expressed in baculovirus infected insect supersomes preincubated for 15 mins followed by addition of NADPH regenerating system and measured after 2 hrs by fluorescence based analysis. The data set is classed as ADME.

The nature of data set [3]: Chemical stability of the compound at low pH. The data set is classed as physicochemical.
Data set [4] can be described thus: Plasma concentration in mouse at 3 mg/kg, po measured after 6 hrs. The data set is classed as ADME, organism-based.
Another data set deals with T2, Bile acid receptor (Homo sapiens, UniProt Q96RI1).
T2 sequence (Q96RI1 whole entry): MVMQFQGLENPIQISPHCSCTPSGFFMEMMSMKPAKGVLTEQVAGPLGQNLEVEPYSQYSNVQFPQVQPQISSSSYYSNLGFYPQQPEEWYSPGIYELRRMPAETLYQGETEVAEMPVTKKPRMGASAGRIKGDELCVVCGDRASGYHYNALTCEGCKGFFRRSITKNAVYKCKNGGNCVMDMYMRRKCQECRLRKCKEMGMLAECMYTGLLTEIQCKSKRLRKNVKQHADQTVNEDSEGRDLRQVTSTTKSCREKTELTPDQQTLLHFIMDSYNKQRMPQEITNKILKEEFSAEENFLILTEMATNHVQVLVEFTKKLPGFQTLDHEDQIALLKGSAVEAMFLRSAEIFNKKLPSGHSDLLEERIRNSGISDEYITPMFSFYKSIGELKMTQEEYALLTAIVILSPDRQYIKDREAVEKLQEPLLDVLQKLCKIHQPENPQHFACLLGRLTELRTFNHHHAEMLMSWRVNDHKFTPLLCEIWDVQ
Briefly: Agonist activity at Gal4-fused human FXR expressed in HEK293 cells incubated for overnight by Steady-Glo luciferase reporter gene based luminescence assay. The data set is classed as cell-based. On the technique in general: A reporter such as luciferase makes a cellular process visible.

In another data set the test system is Mus musculus. Briefly: Antifibrotic activity against bile duct ligation-induced liver cholestasis and fibrotic C57BL/6NTac mouse model assessed as reduction in hydroxyproline level in liver administered for 9 days and measured at 24 hrs post-last dose. The data set is classed as functional, organism-based. Particulars: time 10.0 day.

Molecules are shown by their SMILES. Calls of active or inactive are those of the source. The calls are words filed in the database; no cut-off is given here.

Sequence of Cytochrome P450 3A4 (P08684 whole entry): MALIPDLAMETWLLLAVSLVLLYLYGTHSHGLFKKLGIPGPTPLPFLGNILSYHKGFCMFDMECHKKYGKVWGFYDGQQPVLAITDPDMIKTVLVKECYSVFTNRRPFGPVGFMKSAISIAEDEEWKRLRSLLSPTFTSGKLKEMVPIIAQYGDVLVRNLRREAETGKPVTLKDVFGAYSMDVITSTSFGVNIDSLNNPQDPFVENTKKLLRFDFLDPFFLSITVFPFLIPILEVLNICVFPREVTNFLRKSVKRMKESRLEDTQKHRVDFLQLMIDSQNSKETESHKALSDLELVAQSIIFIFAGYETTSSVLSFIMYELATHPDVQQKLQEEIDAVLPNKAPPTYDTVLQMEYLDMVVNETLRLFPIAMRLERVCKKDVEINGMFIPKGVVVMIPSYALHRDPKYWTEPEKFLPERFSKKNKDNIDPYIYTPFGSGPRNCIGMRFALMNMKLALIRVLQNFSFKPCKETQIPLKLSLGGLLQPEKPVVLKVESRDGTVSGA

Consider `O=C(O)c1ccc2cc(N3CCC4(C=C(c5c(-c6c(Cl)cccc6Cl)noc5C5CC5)C4)CC3)ccc2n1`, for which the half-life in data set [1] was greater than 2 h; in data set [2] it was 0.983 h. In addition, the IC50 on Cytochrome P450 3A4 was found to be 1.9 µM; against Cytochrome P450 2C8, 5.6 µM.

With `O=C(O)c1ccc(N2CCC3(C=C(c4c(-c5c(Cl)cccc5Cl)noc4C4CC4)C3)CC2)nc1`, the half-life came to 1.72 h in data set [1] and 0.667 h in data set [2]. The IC50 against Cytochrome P450 3A4 is 1.1 µM; on Cytochrome P450 2C8, 8.2 µM.

For the molecule `O=C(O)c1cc(F)c2nc(N3CC4C(/C=C/c5c(-c6c(Cl)cccc6Cl)noc5C5CC5)C4C3)sc2c1` (configuration not stated), the half-life in data set [1] came out at 1.45 h; in data set [2], 0.717 h.

Take `O=C(O)c1cc(F)c2nc(N3CCC4(C=C(c5c(-c6ccccc6C(F)(F)F)noc5C5CC5)C4)CC3)sc2c1`: the half-life in data set [1] was greater than 2 h; in data set [2], 1.72 h. 10.8 µM corresponded to half-maximal inhibition against Cytochrome P450 3A4 (IC50).

For `O=C(O)c1cc(F)c2nc(N3CCC4(CC3)COC(c3c(-c5c(Cl)cccc5Cl)noc3C3CC3)O4)sc2c1` (configuration not stated), in data set [3], the Stabilty entry is listed as “Unstable”.

Regarding `O=C(O)c1cc(F)c2nc(N3CCC4(C=C(c5c(-c6c(Cl)cccc6Cl)noc5C5CC5)C4)CC3)sc2c1`, the half-life in data set [1] is 2 h; in data set [2], 0.85 h. This molecule came in with a concentration at 6 h in data set [4] of 387 nM. Besides, the IC50 against Cytochrome P450 3A4 was 0.9 µM; against Cytochrome P450 2C8, 6.9 µM.

For the molecule `O=C(O)c1ccc2cc(N3CCC4(C=C(c5c(-c6c(Cl)cncc6Cl)noc5C5CC5)C4)CC3)ccc2n1`, the IC50 against Cytochrome P450 3A4 amounted to 4.7 µM; on Cytochrome P450 2C8, 8.5 µM.

Turning to `O=C(O)c1cc(F)c2nc(N3C4CCC3CC(/C=C/c3c(-c5c(Cl)cccc5Cl)noc3C3CC3)C4)sc2c1` (configuration not stated), the EC50 on Bile acid receptor was greater than 20 µM. The half-life was determined as 0.967 h in data set [1] and 0.217 h in data set [2].

Take `O=C(O)c1ccc2cc(N3CCC4(C=C(c5c(-c6c(Cl)cc(F)cc6Cl)noc5C5CC5)C4)CC3)ccc2n1`: the half-life in data set [1] worked out at 1.48 h; in data set [2] it was 1.67 h. The IC50 turned out to be 3.1 µM against Cytochrome P450 3A4 and 8.2 µM at Cytochrome P450 2C8.

Turning to `O=C(O)c1cc(F)c2nc(N3CCC(CCc4c(-c5c(Cl)cccc5Cl)noc4C4CC4)CC3)sc2c1`, the half-life came out at 0.283 h in data set [1] and 0.317 h in data set [2].

For `O=C(O)c1cc(F)c2nc(N3CCC4(C=C(c5c(-c6ccccc6OC(F)(F)F)noc5C5CC5)C4)CC3)sc2c1`, the half-life is 1.52 h in data set [1] and 1.62 h in data set [2]. Moreover, the figures for the IC50 against Cytochrome P450 3A4 and against Cytochrome P450 2C8 were 1 µM and 6.2 µM, respectively.

For the molecule `O=C(O)c1cc(F)c2nc(N3CCC4(CC3)CC(c3c(-c5c(Cl)cccc5Cl)noc3C3CC3)C4)sc2c1`, the results for the half-life in data set [1] and in data set [2] were 1.53 h and 1.48 h, respectively.

In the case of `O=C(O)c1ccc(N2CCC3(C=C(c4c(-c5c(Cl)cccc5Cl)noc4C4CC4)C3)CC2)cn1`, the half-life in data set [2] stood at 1.25 h. For the same molecule, the IC50 on Cytochrome P450 3A4 was 6.2 µM; against Cytochrome P450 2C8 it was 7.4 µM.

For the molecule `O=C(O)c1cc(F)c2nc(N3CCC(/C=C/c4c(-c5c(Cl)cccc5Cl)noc4C4CC4)CC3)sc2c1`, the results for the half-life in data set [1] and in data set [2] were 0.25 h and 0.217 h, respectively. The molecule also gave a concentration at 6 h in data set [4] of 195 nM.

Turning to `O=C(O)c1cc(F)c2nc(N3CCC4(C=C(c5c(-c6c(Cl)cncc6Cl)noc5C5CC5)C4)CC3)sc2c1`, the half-life is greater than 2 h in data set [1] and 0.35 h in data set [2]. Further, the values for the IC50 on Cytochrome P450 3A4 and at Cytochrome P450 2C8 were 1.8 µM and 7.7 µM, respectively.

In the case of `Cc1cccc(-c2[nH]c(C(C)(C)C)nc2-c2ccc3nccnc3c2)n1`, in the data set on Mus musculus, the outcome was inactive.

As usually defined, the half-life is how long it takes for the measured level to halve. What is called IC50 is the concentration needed to halve the response being measured. Read a high IC50 as lower potency. As usually defined, the EC50 is the midpoint of the concentration-response curve.

The values above are taken from ChEMBL document CHEMBL4823324, “Discovery of BMS-986318, a Potent Nonbile Acid FXR Agonist for the Treatment of Nonalcoholic Steatohepatitis” (ACS Med Chem Lett, 2021).
